In ChEMBL document CHEMBL1135317, “Halogenated indole-3-acetic acids as oxidatively activated prodrugs with potential for targeted cancer therapy” (2002):

Legend:
V79 [1] = experiment: Cytotoxicity against Chinese hamster lung fibroblasts (V79 cells) was determined by a clonogenic assay (colonies containing >50 cells were counted and surviving fractions (SF) calculated after 2 hr incubation); format: functional, Cricetulus griseus
[2] = Rate constant for oxidation by HRP (horseradish peroxidase) was determined
V79 [3] = experiment: Cytotoxicity against Chinese hamster lung fibroblasts (V79 cells) was determined by a clonogenic assay and colonies containing >50 cells were counted and surviving fractions (SF) calculated after 2 h incubation at 50 uM of prodrug; format: functional, Cricetulus griseus

| SMILES | Surviving fraction (V79 [1]) | Rate constant (k) [2] | Surviving fraction (V79 [3]) |
| --- | --- | --- | --- |
| Cc1[nH]c2ccc(F)cc2c1CC(=O)O | 1 |  |  |
| O=C(O)Cc1c[nH]c2ccc(OC(F)(F)F)cc12 | 1 |  |  |
| Cn1cc(CC(=O)O)c2ccc(Cl)cc21 | 1 |  |  |
| O=C(O)Cc1c[nH]c2c(F)cc(Cl)cc12 | 1 |  |  |
| O=C(O)Cc1c[nH]c2ccc(Cl)cc12 | 0.003 |  |  |
| Cc1ccc(F)c2[nH]cc(CC(=O)O)c12 | 1 |  |  |
| O=C(O)Cc1c[nH]c2cc(F)ccc12 | 0.01 |  |  |
| O=C(O)Cc1c[nH]c2ccc(F)cc12 | <1e-05 |  |  |
| O=C(O)Cc1c[nH]c2ccc(I)cc12 | 1 |  |  |
| Cc1ccc2[nH]cc(CC(=O)O)c2c1 | 1 |  |  |
| O=C(O)Cc1c[nH]c2ccc(-c3ccc(Cl)cc3)cc12 | 1 | 103 Ie3 M-1 s-1 |  |
| Cc1cc(F)c2[nH]cc(CC(=O)O)c2c1 | 1 |  |  |
| O=C(O)Cc1c[nH]c2cc(Cl)cc(Cl)c12 | 1 |  |  |
| COc1ccc2[nH]c(C)c(CC(=O)O)c2c1 [DESCHLOROBENZOYL INDOMETHACIN] | 0.04 | 1710 Ie3 M-1 s-1 |  |
| O=C(O)Cc1c[nH]c2ccc(-c3ccccc3)cc12 | 1 |  |  |
| O=C(O)Cc1c[nH]c2cc(Cl)ccc12 | <1e-05 |  | 0.00085 |
| O=C(O)Cc1c[nH]c2c(Cl)cccc12 | 4e-05 |  |  |
| Cn1cc(CC(=O)O)c2ccccc21 | 0.01 |  |  |
| O=C(O)Cc1c[nH]c2cccc(F)c12 | 9e-05 |  |  |
| O=C(O)Cc1c[nH]c2ccccc12 [INDOLE-3-ACETIC ACID] | 0.01 |  |  |
| Cc1[nH]c2ccccc2c1CC(=O)O | 0.004 | 435 Ie3 M-1 s-1 |  |
| O=C(O)Cc1c[nH]c2cccc(Cl)c12 | 1 |  |  |
| COc1ccc2[nH]cc(CC(=O)O)c2c1 | 0.2 |  |  |
| Cn1cc(CC(=O)O)c2cc(F)ccc21 | 1 |  |  |
